# Values joined by “and” are separate entries in the source; they are usually repeats but may differ in a detail not shown here. Equal values may be shown once.
# What was measured:
# [1] = target: T1, human PNPO 1-31del variant (holo-enzyme) (Homo sapiens, UniProt Q9NVS9); assay: PLP binding by FMN fluorescence changes, holo 1-31del; conditions: read-out: PLP binding KD^FLUO
# T1 construct: a main form corresponding to the entire protein; made in house; host or cells: E. coli BL21(DE3)
# T1 sequence (Q9NVS9 32-261): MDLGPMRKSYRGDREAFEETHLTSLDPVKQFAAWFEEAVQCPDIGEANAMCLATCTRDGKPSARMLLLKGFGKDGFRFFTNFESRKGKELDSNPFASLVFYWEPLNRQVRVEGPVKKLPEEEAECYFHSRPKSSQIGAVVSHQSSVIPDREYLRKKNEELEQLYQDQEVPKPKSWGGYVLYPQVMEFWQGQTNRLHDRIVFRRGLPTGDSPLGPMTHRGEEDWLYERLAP
# From the text: In order to further confirm the location of the PNPO allosteric site, we made several attempts to obtain the crystal structure of the protein‐PLP complex. With the E. coli homologue, any attempt to obtain such a complex with the wild type protein yielded structures in which PLP was bound at the active site, and we could obtain a complex with PLP bound at the allosteric site only when we used a multiple variant form of the enzyme in which the capability to bind ligands at the active site was impaired (Barile et al., [2021]). On the basis of this previous experience, we carried out co‐crystallization attempts with either the wild type or the R225H variant of the human protein and PLP. […] We obtained crystals with both protein forms (Table S1); however, PLP was detected only in the active site of the wild type protein, thus a clear indication about the location of the allosteric site was missing. […] The most interesting features of the 1‐31del form are a lower KD for PLP binding (threefold lower with respect to wild type PNPO), which indicates a higher affinity for the allosteric site, and the related more marked allosteric inhibition, which is evident from the comparison of the reaction kinetics measured in TRIS and HEPES buffers (Figure 7). […]
# [2] = target: T2, human PNPO F48A/E50L/H248N/R258L variant (Homo sapiens, UniProt Q9NVS9, E50L/F48A/H248N/R258L); assay: PLP binding by DSF, quadruple variant; conditions: 50 mM Na-HEPES pH 7.6, 2 μM enzyme
# T2 construct: a main form corresponding to the entire protein; made in house; host or cells: E. coli BL21(DE3)
# T2 sequence (Q9NVS9 1-261 F48A/E50L/H248N/R258L): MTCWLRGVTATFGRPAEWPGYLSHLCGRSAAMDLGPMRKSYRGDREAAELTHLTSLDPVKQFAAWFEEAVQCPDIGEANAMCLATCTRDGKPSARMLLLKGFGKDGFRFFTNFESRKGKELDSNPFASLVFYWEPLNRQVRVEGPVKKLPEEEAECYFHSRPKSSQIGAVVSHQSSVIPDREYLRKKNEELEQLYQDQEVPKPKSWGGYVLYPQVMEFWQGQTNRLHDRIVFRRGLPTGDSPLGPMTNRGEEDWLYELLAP
# From the text: PLP binding to PNPO can be detected and quantitatively measured using differential scanning fluorimetry (DSF) and also by measuring FMN fluorescence changes. We had previously attributed DSF changes to PLP binding at the active site, while FMN fluorescence changes were attributed to PLP binding at the allosteric site (Barile et al., [2019], [2020]). Previous experiments carried out with the PNPO R161C variant, affecting a residue that is essential for substrate binding and catalysis (and therefore also for PLP binding at the active site), confirms that DSF measurements only report PLP binding at the active site (Barile et al., [2021]; Table 1). […] We expected to observe no FMN fluorescence changes upon titration of the variants with PLP. However, this was not the case, and the dissociation constant values obtained by observing the FMN fluorescence emission were only up to threefold larger in the variants with respect to wild type PNPO (Figure 3). […] To check the second possibility, we measured intrinsic fluorescence changes of wild type and variant apo‐forms (i.e., without FMN) upon PLP titration. […]
# FIGURE 2 DSF measurements with F48A (a), F48A/E50L/R258L (b), F48A/E50L/H248N/R258L (c), and 1‐31del PNPO variants in the presence of different PLP concentrations. Upper panels: Fluorescence change is expressed as fractional variation as a function of temperature. […]
structure (smiles),measurement,setting,value
"Cc1ncc(COP(=O)(O)O)c(C=O)c1O [PLP, pyridoxal 5′‐phosphate]",Kd,[1],0.31 ± 0.03 µM
same,Kd,[2],6.07 µM and 6.1 µM

# Source: article PMC10804683, “Identification of the pyridoxal 5′‐phosphate allosteric site in human pyridox(am)ine 5′‐phosphate oxidase” (Protein Science : A Publication of the Protein Society, 2024)
